The nature of one data set: Aqueous solubility. It is filed as physicochemical.
For data set [1] the following is noted: cited from earlier work.

≈ marks a conversion by molar mass, not a printed value. Counter-ions that a name gives are not always drawn.

For `CO[C@H]1C[C@@H]2CC[C@@H](C)[C@@](O)(O2)C(=O)C(=O)N2CCCC[C@H]2C(=O)O[C@H]([C@H](C)C[C@@H]2CC[C@@H](O)[C@H](OC)C2)CC(=O)[C@H](C)/C=C(\C)[C@@H](O)[C@@H](OC)C(=O)[C@H](C)C[C@H](C)/C=C/C=C/C=C/1C` [Rapa, Rapamycin, reference compound], the “Times Increased of Aqueous Solubility (Comp. vs. Rapa)” value in “Aqueous solubility” (ratio of compound solubility to Rapa solubility) turned out to be 1. In addition, in the data set “Aqueous solubility” (water), the concentration in solution (solubility) was 2.6 µg/mL (≈ 2.84 µM). The oral bioavailability in data set [1] was 10%.

In the case of `CO[C@H]1C[C@@H]2CC[C@@H](C)[C@@](O)(O2)C(=O)C(=O)N2CCCC[C@H]2C(=O)O[C@H]([C@H](C)C[C@@H]2CC[C@@H](OC(=O)C[n+]3cscc3C)[C@H](OC)C2)CC(=O)[C@H](C)/C=C(\C)[C@@H](O)[C@@H](OC)C(=O)[C@H](C)C[C@H](C)/C=C/C=C/C=C/1C` (as salt: ammonium) [Compound 2, Rapa-42-ester of 2-(4-methylthiazolium-3-yl)acetic Acid], the melting point (in general, the temperature, or range, at which the solid turns liquid) was 130 to 133 °C.
